This is an account of results in paper PMC4769084, “Aminoglycoside binding and catalysis specificity of aminoglycoside 2″-phosphotransferase IVa: A thermodynamic, structural and kinetic study” (Biochimica et Biophysica Acta, 2016).

Read-outs that look alike come from different tables or passages of the source.

In general, Kd refers to a measure of binding affinity in units of concentration. The term Km denotes the concentration of substrate that gives half-maximal velocity.

The target of data set [1] is T1, APH(2″)-IVa (Enterococcus casseliflavus, UniProt O68183). As to the kind of experiment: Isothermal titration calorimetry of aminoglycoside binding. The protocol: The enzyme was extensively dialyzed against buffer containing 50 mM Tris–HCl at pH 7.5, 40 mM KCl, 1 mM MgCl2 and ligand solutions were prepared at 5 mM in the final dialysate with readjusting pH to 7.5. The enzyme was used at a final concentration of 150 μM. ITC experiments were carried out at 25 °C in a VP-ITC calorimeter (MicroCal, GE Healthcare). Titrations consisted of 40 injections of 5 μL of ligand every 300 s. The cell stirring speed was 300 rpm. To obtain reliable dissociation constants, the c-value, a unitless parameter obtained by the multiplication of the association constant and the total concentration of ligand binding sites, was kept between 1.8 and 100 for all titrations. Control runs were performed by titrating ligands to buffer, and the resulting background signal was subtracted from the corresponding experimental data. Experiments were carried out at 1 mM free Mg^2 +.
T1 sequence (O68183 entry or part of it): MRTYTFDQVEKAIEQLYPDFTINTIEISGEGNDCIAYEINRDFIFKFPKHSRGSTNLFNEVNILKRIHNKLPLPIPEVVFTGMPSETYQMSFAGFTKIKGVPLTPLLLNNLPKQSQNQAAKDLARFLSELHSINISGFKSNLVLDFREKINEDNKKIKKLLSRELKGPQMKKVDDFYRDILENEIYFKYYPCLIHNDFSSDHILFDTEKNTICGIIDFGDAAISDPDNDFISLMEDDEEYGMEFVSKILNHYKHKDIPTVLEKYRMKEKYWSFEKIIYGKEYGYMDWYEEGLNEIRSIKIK
Binding and thermodynamic parameters Ka (association constant), ΔH (enthalpy change) and stoichiometry were obtained by nonlinear least-squares fitting of experimental data using a single-site binding model of the Origin software package (version 5.0) provided with the instrument. The free energy of binding (ΔG) and entropy change at 25 °C (ΔS) were obtained using the following equations:(1) ΔG=–RTlnKa (2) ΔG=ΔH–TΔS
The experiments were performed in triplicate (except with G418 and kanamycin B, in duplicate) and the error values given in the tables are standard deviations.
A general note: In ITC the heat of successive injections is recorded.

Data set [2] relates to APH(2″)-IVa. More on the design: method as in Toth et al. [5]. As to conditions: values in brackets, coupled enzyme system; ref Toth et al. [5]; cited from earlier work.
Data set [3] has as its target T1, APH(2″)-IVa. As to conditions: for phosphotransferase activity: confirmed at 5 μM APH(2″)-IVa, 2.5 mM ATP; for Kd/Km: ratio of ITC Kd to steady state Km; for Km / kcat: saturating MgATP (2.5 mM), aminoglycoside 0 to 100 μM, 25 °C, pH 7.5; for Km: na = no detectable activity; for kcat: na = no detectable activity (< 0.001 s^− 1), enzyme up to 5 μM. As for the experimental part: (§1) Unless otherwise stated, kinetic experiments were carried out in a buffer that contained 50 mM Tris, 40 mM KCl, 1 mM free MgCl2 adjusted to pH 7.5 with HCl at 25 °C. In the case of experiments with CaATP, the buffer was MgCl2-free.
Steady state kinetics were carried out in thermostatically controlled beakers as already described. Unless otherwise stated, the enzyme concentration was 0.5 μM in the presence of various concentrations of aminoglycoside (5 to 100 μM). […] At regular intervals, a volume of 80 μL of the reaction mixture was sampled from the beaker and mixed in a tube containing 40 μL of perchloric acid at 10%. The precipitated protein was then removed by centrifugation at 4 °C, 20 min at 19,000 g. ADP and ATP were separated by HPLC (Waters) on an anion-exchange column (SAX-Partisphere, AIT France). The mobile phase was 200 mM ammonium phosphate–HCl buffer at pH 5.5 and 10% acetonitrile. A 100 μL volume of the quenched reaction mixture was diluted in 900 μL of buffer containing the mobile phase supplemented with 5 N KOH to readjust the pH to 5.5. Quantification of ADP and ATP was obtained by integrating HPLC peaks at 259 nm and their concentrations were reported relative to the enzyme concentration. […] For each injected sample, the concentration of ADP was calculated using the following equation, where [ATP]i is the initial ATP concentration used in the experiment:(3) ADP=ADPpeakarea×ATPi/ADPpeakarea+ATPpeakarea

Data set [4] has as its target T1, APH(2″)-IVa. As to the kind of experiment: Transient kinetics, stopped–flow with MDCC-ParM ADP biosensor (free ADP). It is filed as biochemical. As to conditions: 5 μM APH(2″)-IVa, 500 μM ATP, 100 μM aminoglycoside, 50 μM MDCC-ParM. As for the experimental part: as §1
(§2) Transient kinetic experiments were carried out at 25 °C in a QFM-400 quench–flow (Bio-Logic, France) or in a SF-61 DX2 stopped–flow (TgK Scientific, UK). In the quench–flow method, APH(2″)-IVa, pre-incubated with the aminoglycoside, was mixed with ATP in the apparatus. The mixtures were aged for specific times (from 8 ms to several seconds), quenched in 10% perchloric acid and the ADP and ATP measured by HPLC, as described above. Because perchloric acid dissociates all non-covalent complexes, by this method, concentrations in the reaction mixtures of total ADP, that is to say enzyme-bound ADP plus free ADP, are obtained. In the stopped–flow experiments, a free ADP fluorescent biosensor, MDCC-ParM [28], was included in the ATP solution. By this method, concentrations in the reaction mixtures of free ADP only are obtained. Experiments were carried out as previously described for APH(3′)-IIIa.

Data set [5] deals with T1, APH(2″)-IVa. As to the kind of experiment: Transient kinetics, rapid quench–flow (total ADP). In kind it is biochemical. The settings on record: 5 μM APH(2″)-IVa, 500 μM ATP, 100 μM aminoglycoside; for Aburst: ± standard error of fit. As for the experimental part:
as §1, §2

Data set [6] concerns NC[C@H]1O[C@H](O[C@H]2[C@H](O)[C@@H](O[C@H]3O[C@H](CO)[C@@H](O)[C@H](N)[C@H]3O)[C@H](N)C[C@@H]2N)[C@H](N)C[C@@H]1O. As to the kind of experiment: purified protein, by the assay type. As to conditions: other: saturating MgATP (2.5 mM), aminoglycoside 0 to 100 μM, 25 °C, pH 7.5, na = no detectable activity.
Method: (§3) Steady state kinetics were carried out in thermostatically controlled beakers as already described [27]. Unless otherwise stated, the enzyme concentration was 0.5 μM in the presence of various concentrations of aminoglycoside (5 to 100 μM). […] Reactions were initiated by adding a saturating concentration of ATP (2.5 mM) in a thermostatically controlled beaker containing APH(2″)-IVa and aminoglycoside. At regular intervals, a volume of 80 μL of the reaction mixture was sampled from the beaker and mixed in a tube containing 40 μL of perchloric acid at 10%. The precipitated protein was then removed by centrifugation at 4 °C, 20 min at 19,000 g. ADP and ATP were separated by HPLC (Waters) on an anion-exchange column (SAX-Partisphere, AIT France). The mobile phase was 200 mM ammonium phosphate–HCl buffer at pH 5.5 and 10% acetonitrile. A 100 μL volume of the quenched reaction mixture was diluted in 900 μL of buffer containing the mobile phase supplemented with 5 N KOH to readjust the pH to 5.5. Quantification of ADP and ATP was obtained by integrating HPLC peaks at 259 nm and their concentrations were reported relative to the enzyme concentration. Concentrations (in the quenched reaction mixtures) between 0.5 and 500 μM of ADP or ATP gave a linear and equivalent OD259 response. For each injected sample, the concentration of ADP was calculated using the following equation, where [ATP]i is the initial ATP concentration used in the experiment:(3) ADP=ADPpeakarea×ATPi/ADPpeakarea+ATPpeakarea
Data set [7] has as its system NC[C@H]1O[C@H](O[C@H]2[C@H](O)[C@@H](O[C@H]3O[C@H](CO)[C@@H](O)[C@H](N)[C@H]3O)[C@H](N)C[C@@H]2N)[C@H](N)[C@@H](O)[C@@H]1O. As to the kind of experiment: purified protein, by the assay type. As to conditions: other: saturating MgATP (2.5 mM), aminoglycoside 0 to 100 μM, 25 °C, pH 7.5, na = no detectable activity.
Method: as §3
Data set [8] relates to CN[C@@H]1[C@@H](O)[C@@H](O[C@@H]2[C@@H](O)[C@H](O[C@H]3OC(CN)=CC[C@H]3N)[C@@H](N)C[C@H]2N)OC[C@]1(C)O. As to the kind of experiment: purified protein, by the assay type. As to conditions: other: saturating MgATP (2.5 mM), aminoglycoside 0 to 100 μM, 25 °C, pH 7.5, na = no detectable activity.
Method: as §3

In data set [1], `NCC[C@H](O)C(=O)N[C@@H]1C[C@H](N)[C@@H](O[C@H]2O[C@H](CN)[C@@H](O)[C@H](O)[C@H]2O)[C@H](O)[C@H]1O[C@H]1O[C@H](CO)[C@@H](O)[C@H](N)[C@H]1O` [Amikacin] yielded a dissociation constant (Kd) of 82.2 ± 8.9 µM. Also, in data set [2], the Km is 98 µM and the kcat result is reported as “(0.15 ± 0.01) s^− 1”. Moreover, in data set [3], the phosphotransferase activity result was “absence of activity”.
For `CN[C@@H]1[C@@H](O)[C@@H](O[C@@H]2[C@@H](O)[C@H](O[C@H]3O[C@H]([C@@H](C)O)[C@@H](O)[C@H](O)[C@H]3N)[C@@H](N)C[C@H]2N)OC[C@]1(C)O` [G418], the Kd in data set [1] (read-out: Kd) was 27.5 ± 3.3 µM. Also, in data set [3], the Kd/Km is 12.5, the Km worked out at 2200 ± 400 nM and the kcat is given as 0.49 ± 0.01 s^− 1. In data set [4], this compound came in with a klag of 1.6 ± 0.1 s^− 1 and a kss of 0.33 ± 0.01 s^− 1. In data set [5], this compound had a kburst of 2.0 ± 1.1 s^− 1, a kss of 0.35 ± 0.04 s^− 1 and an Aburst of 0.34 ± 0.11 mol/mol.
The compound `CNC(C)C1CCC(N)C(OC2C(N)CC(N)C(OC3OCC(C)(O)C(NC)C3O)C2O)O1` (centres unmarked) [Gentamicin] registered a Kd in data set [1] of 9.7 ± 5 µM. In addition, in data set [3], the Kd/Km is reported as 2.9, the Km was 3300 ± 600 nM and the kcat came to 0.47 ± 0.01 s^− 1.
As to `NC[C@H]1O[C@H](O[C@H]2[C@H](O)[C@@H](O[C@H]3O[C@H](CO)[C@@H](O)[C@H](N)[C@H]3O)[C@H](N)C[C@@H]2N)[C@H](N)[C@@H](O)[C@@H]1O` [Kanamycin B], the affinity in data set [1], expressed as Kd, was 5.7 ± 1.1 µM. Further, the Kd/Km in data set [3] turned out to be 0.5.
In turn, `NC[C@@H]1O[C@H](O[C@H]2[C@@H](O)[C@H](O[C@@H]3[C@@H](O)[C@H](N)C[C@H](N)[C@H]3O[C@H]3O[C@H](CO)[C@@H](O)[C@H](O)[C@H]3N)O[C@@H]2CO)[C@H](N)[C@@H](O)[C@@H]1O` [Paromomycin] returned a dissociation constant (Kd) in data set [1] of 63.6 ± 29 µM. The phosphotransferase activity entry in data set [3] is reported as “absence of activity”.
Compound `CN[C@@H]1[C@@H](O)[C@@H](O[C@@H]2[C@@H](O)[C@H](O[C@H]3OC(CN)=CC[C@H]3N)[C@@H](N)C[C@H]2N)OC[C@]1(C)O` [Sisomicin] came in with a Kd in data set [1] of 2.3 ± 1.6 µM. Also, the Kd/Km in data set [3] was 0.7. In data set [4], this compound returned a klag of 1.6 ± 0.1 s^− 1 and a kss of 0.48 ± 0.01 s^− 1. In data set [5], this compound yielded a kburst of 2.0 ± 0.4 s^− 1, a kss of 0.50 ± 0.02 s^− 1 and an Aburst of 0.48 ± 0.07 mol/mol.
Take `NC[C@H]1O[C@H](O[C@H]2[C@H](O)[C@@H](O[C@H]3O[C@H](CO)[C@@H](O)[C@H](N)[C@H]3O)[C@H](N)C[C@@H]2N)[C@H](N)C[C@@H]1O` [Tobramycin]: the Kd in data set [1] amounted to 3.9 ± 0.6 µM. The “affinity of the apoprotein, times greater than for kanamycin A and for amikacin” value in data set [1] (ITC Kd comparison) is recorded as 20 times. For the same compound, in data set [2], the Michaelis constant (Km) was 1.5 µM and the kcat result is “(1.80 ± 0.03) s^− 1”. For the same compound, the Kd/Km in data set [3] was determined as 0.3. In addition, in data set [4], the klag turned out to be 3.3 ± 0.1 s^− 1 and the kss came out at 1.05 ± 0.01 s^− 1. In data set [5], the kburst worked out at 2.1 ± 0.4 s^− 1, the kss stood at 1.08 ± 0.02 s^− 1 and the Aburst came out at 0.44 ± 0.05 mol/mol.
Consider “APH(2″)-IVa (Enterococcus casseliflavus)”, for which, in data set [6], the Km came to 13.2 ± 2.2 µM, the kcat turned out to be 1.64 ± 0.08 s^− 1 and the kcat/Km amounted to 0.124 μM^− 1 s^− 1. In data set [7], the Km was found to be 12.5 ± 2.9 µM, the kcat is recorded as 1.69 ± 0.11 s^− 1 and the kcat/Km is listed as 0.135 μM^− 1 s^− 1. Further, in data set [8], the Km was 3.5 ± 0.6 µM, the kcat stood at 0.73 ± 0.02 s^− 1 and the kcat/Km came to 0.209 μM^− 1 s^− 1.
Regarding Kanamycin A, in data set [1] (ITC Kd comparison), the “Kd, fold larger compared to tobramycin” value was 20 fold. For the same compound, in data set [2], the Km is 3.3 µM and the kcat entry is listed as “(0.92 ± 0.01) s^− 1”. Besides, the “steady state rate constant” value in data set [3] (0.5 μM APH(2″)-IVa, 100 μM kanamycin A, 100 μM MgATP) is reported as 0.23 s^− 1. Besides, the “steady state rate constant” value in data set [3] (0.5 μM APH(2″)-IVa, 100 μM kanamycin A, 200 μM MgATP) is on record as 0.37 s^− 1. In data set [3] (0.5 μM APH(2″)-IVa, 100 μM kanamycin A, 2 mM CaATP), the “kss, CaATP phosphotransferase activity” value turned out to be 0.092 s^− 1. For the same compound, in data set [3] (0.5 μM APH(2″)-IVa, 100 μM kanamycin A, 2 mM MgATP), the “kss, MgATP phosphotransferase activity” value turned out to be 0.84 s^− 1. In addition, the “Km, fold lower compared with tobramycin” value in data set [3] (in the presence of ATP) amounted to 3.3 fold. Besides, the Kd/Km in data set [3] was determined as 20.0. In data set [3] (listed as kanamycin A), the Kd/Km is listed as 20. Moreover, in data set [4], the klag stood at 3.4 ± 0.1 s^− 1 and the kss is listed as 0.70 ± 0.01 s^− 1. In data set [5], this compound came in with a kburst of 3.4 ± 0.7 s^− 1, a kss of 0.77 ± 0.02 s^− 1 and an Aburst of 0.38 ± 0.04 mol/mol.
